# Data taken from ChEMBL document CHEMBL5247656, “Discovery of a Potent, Cooperative, and Selective SOS1 PROTAC ZZ151 with In Vivo Antitumor Efficacy in KRAS-Mutant Cancers” (J Med Chem, 2023).
# Activity calls are given as the source filed them. The calls are words filed in the database; no cut-off is given here.
# How the values were obtained:
# [1] = Toxicity in BALB/c nude mouse xenografted with human SW620 cells harboring KRAS G12V mutant assessed as body weight loss at 10 to 20 mg/kg, ip administered once daily for 2 weeks; assay type: organism-based, SW-620; details: in vivo, 336 h, dose 10-20 mg/kg
# MIA PaCa-2 = experiment: Antiproliferative activity against human MIA PaCa-2 cells harboring KRAS G12C mutant assessed as inhibition of cell proliferation incubated for 7 days by CellTiterGlo-3D proliferation assay; assay type: functional, cell-based; details: MIA PaCa-2, 168 h
# [2] = biological target: T1, von Hippel-Lindau disease tumor suppressor/Son of sevenless homolog 1 (Homo sapiens) (UniProt Q07889+P40337); experiment: PROTAC activity at VHL/SOS1 in human NCI-H358 cells assessed as induction of SOS1 protein degradation by measuring maximal efficacy at 2 to 2000 nM incubated for 24 hrs by Immunoblot analysis relative to control; assay type: cell-based; details: dose 2-2000 nM
# LoVo = experiment: Antiproliferative activity against human LoVo cells harboring KRAS G13D mutant assessed as inhibition of cell proliferation incubated for 7 days by CellTiterGlo-3D proliferation assay; assay type: functional, cell-based; details: 168 h
# SW-620 [3] = experiment: Antitumor activity against human SW620 cells harboring KRAS G12V mutant xenografted in BALB/c nude mouse assessed as tumor growth inhibition at 10 mg/kg, ip administered once daily for 2 weeks relative to control; assay type: functional; details: SW-620, 336 h, read-out: TGI
# NCI-H460 = experiment: Antiproliferative activity against human NCI-H460 cells harboring KRAS […] mutant assessed as inhibition of cell proliferation incubated for 7 days by CellTiterGlo-3D proliferation assay; assay type: functional, cell-based; details: time 7.0 day
# [4] = biological target: T1, von Hippel-Lindau disease tumor suppressor/Son of sevenless homolog 1 (Homo sapiens); experiment: PROTAC activity at VHL/SOS1 in human NCI-H358 cells assessed as induction of SOS1 protein degradation at 1.0 uM incubated for 24 hrs by Immunoblot analysis relative to control; assay type: cell-based
# [5] = Half-life in BALB/c mouse at 10 mg/kg, ip measured upto 24 hrs by LC-MS/MS analysis; assay type: ADME, organism-based; details: in vivo
# [6] = biological target: von Hippel-Lindau disease tumor suppressor/Son of sevenless homolog 1 (Homo sapiens, UniProt P40337+Q07889, G12R); experiment: PROTAC activity at VHL/SOS1 in human CAL-62 cells harboring KRAS G12R mutant assessed as induction of SOS1 degradation incubated for 24 hrs by Immunoblot analysis; assay type: cell-based
# [7] = biological target: T1, von Hippel-Lindau disease tumor suppressor/Son of sevenless homolog 1 (Homo sapiens); experiment: PROTAC activity at VHL/SOS1 in human NCI-H358 cells harboring KRAS G12C mutant with shRNA lentivirus mediated VHL knockdown assessed as induction of SOS1 degradation at 1 uM incubated for 24 hrs by Immunoblot analysis; assay type: cell-based
# [8] = biological target: T1, von Hippel-Lindau disease tumor suppressor/Son of sevenless homolog 1 (Homo sapiens); experiment: PROTAC activity at VHL/SOS1 in human ASPC1 cells harboring KRAS G12D mutant assessed as induction of SOS1 degradation at 1 uM preincubated with MG132 for 4 hrs followed by compound treatment and measured after 24 hrs by immunoblot analysis; assay type: cell-based
# [9] = biological target: T1, von Hippel-Lindau disease tumor suppressor/Son of sevenless homolog 1 (Homo sapiens); experiment: PROTAC activity at VHL/SOS1 in human ASPC1 cells harboring KRAS G12D mutant assessed as induction of SOS1 degradation at 1 uM preincubated with VHL ligand for 4 hrs followed by compound treatment and measured after 24 hrs by immunoblot analysis; assay type: cell-based
# [10] = biological target: T1, von Hippel-Lindau disease tumor suppressor/Son of sevenless homolog 1 (Homo sapiens); experiment: PROTAC activity at VHL/SOS1 in human SNU-C2B cells harboring KRAS G12D mutant assessed as induction of SOS1 degradation by measuring maximal efficacy at 1 to 2000 nM incubated for 24 hrs by Immunoblot analysis relative to control; assay type: cell-based; details: dose 1-2000 nM
# [11] = biological target: T1, von Hippel-Lindau disease tumor suppressor/Son of sevenless homolog 1 (Homo sapiens); experiment: PROTAC activity at VHL/SOS1 in human HCT-116 cells harboring KRAS G13D mutant assessed as induction of SOS1 degradation by measuring maximal efficacy at 1 to 2000 nM incubated for 24 hrs by Immunoblot analysis relative to control; assay type: cell-based; details: dose 1-2000 nM
# [12] = biological target: T1, von Hippel-Lindau disease tumor suppressor/Son of sevenless homolog 1 (Homo sapiens); experiment: PROTAC activity at VHL/SOS1 in human NCI-H358 cells harboring KRAS G12C mutant assessed as induction of SOS1 degradation at 1 uM preincubated with VHL ligand for 4 hrs followed by compound treatment and measured after 24 hrs by Immunoblot analysis; assay type: cell-based
# [13] = biological target: T1, von Hippel-Lindau disease tumor suppressor/Son of sevenless homolog 1 (Homo sapiens); experiment: PROTAC activity at VHL/SOS1 in human A549 cells harboring KRAS G12S mutant assessed as induction of SOS1 degradation at 1 uM incubated for 2 to 4 hrs by Immunoblot analysis; assay type: cell-based; details: time 2-4 hrs
# [14] = biological target: T1, von Hippel-Lindau disease tumor suppressor/Son of sevenless homolog 1 (Homo sapiens); experiment: PROTAC activity at VHL/SOS1 in human CAL-62 cells harboring KRAS G12R mutant assessed as induction of SOS1 degradation by measuring maximal efficacy at 1 to 2000 nM incubated for 24 hrs by Immunoblot analysis relative to control; assay type: cell-based; details: dose 1-2000 nM
# SW-620 [15] = experiment: Antitumor activity against human SW620 cells harboring KRAS G12V mutant xenografted in BALB/c nude mouse assessed as tumor growth inhibition at 20 mg/kg, ip administered once daily for 2 weeks relative to control; assay type: functional; details: SW-620, 336 h, read-out: TGI
# ASPC1 [16] = experiment: Antiproliferative activity against human ASPC1 cells harboring KRAS G12D mutant assessed as inhibition of cell proliferation incubated for 7 days by CellTiterGlo-3D proliferation assay; assay type: functional, cell-based; details: ASPC1, 168 h
# [17] = biological target: T1, von Hippel-Lindau disease tumor suppressor/Son of sevenless homolog 1 (Homo sapiens); experiment: PROTAC activity at VHL/SOS1 in human SW620 cells harboring KRAS G12V mutant assessed as induction of SOS1 degradation at 1 uM incubated for 8 hrs by Immunoblot analysis; assay type: cell-based
# [18] = biological target: T1, von Hippel-Lindau disease tumor suppressor/Son of sevenless homolog 1 (Homo sapiens); experiment: PROTAC activity at VHL/SOS1 in human ASPC1 cells harboring KRAS G12D mutant with shRNA lentivirus mediated VHL knockdown assessed as induction of SOS1 degradation at 1 uM incubated for 24 hrs by Immunoblot analysis; assay type: cell-based
# [19] = biological target: T1, von Hippel-Lindau disease tumor suppressor/Son of sevenless homolog 1 (Homo sapiens); experiment: PROTAC activity at VHL/SOS1 in human ASPC1 cells harboring KRAS G12D mutant assessed as induction of SOS1 degradation at 1 uM incubated for 2 to 4 hrs by Immunoblot analysis; assay type: cell-based; details: time 2-4 hrs
# ASPC1 [20] = experiment: Downregulation of ZCCHC10 in human ASPC1 cells at 1 uM incubated for 6 hrs by quantitative proteomics analysis; assay type: functional, cell-based
# T1 sequence (P40337 whole entry, looked up): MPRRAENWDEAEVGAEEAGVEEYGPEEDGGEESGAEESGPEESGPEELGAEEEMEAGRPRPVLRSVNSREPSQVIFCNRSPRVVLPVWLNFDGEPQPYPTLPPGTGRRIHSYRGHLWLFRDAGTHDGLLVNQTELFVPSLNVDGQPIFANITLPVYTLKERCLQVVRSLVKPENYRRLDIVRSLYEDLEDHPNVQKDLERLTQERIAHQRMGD
# T1 sequence (Q07889 whole entry, looked up): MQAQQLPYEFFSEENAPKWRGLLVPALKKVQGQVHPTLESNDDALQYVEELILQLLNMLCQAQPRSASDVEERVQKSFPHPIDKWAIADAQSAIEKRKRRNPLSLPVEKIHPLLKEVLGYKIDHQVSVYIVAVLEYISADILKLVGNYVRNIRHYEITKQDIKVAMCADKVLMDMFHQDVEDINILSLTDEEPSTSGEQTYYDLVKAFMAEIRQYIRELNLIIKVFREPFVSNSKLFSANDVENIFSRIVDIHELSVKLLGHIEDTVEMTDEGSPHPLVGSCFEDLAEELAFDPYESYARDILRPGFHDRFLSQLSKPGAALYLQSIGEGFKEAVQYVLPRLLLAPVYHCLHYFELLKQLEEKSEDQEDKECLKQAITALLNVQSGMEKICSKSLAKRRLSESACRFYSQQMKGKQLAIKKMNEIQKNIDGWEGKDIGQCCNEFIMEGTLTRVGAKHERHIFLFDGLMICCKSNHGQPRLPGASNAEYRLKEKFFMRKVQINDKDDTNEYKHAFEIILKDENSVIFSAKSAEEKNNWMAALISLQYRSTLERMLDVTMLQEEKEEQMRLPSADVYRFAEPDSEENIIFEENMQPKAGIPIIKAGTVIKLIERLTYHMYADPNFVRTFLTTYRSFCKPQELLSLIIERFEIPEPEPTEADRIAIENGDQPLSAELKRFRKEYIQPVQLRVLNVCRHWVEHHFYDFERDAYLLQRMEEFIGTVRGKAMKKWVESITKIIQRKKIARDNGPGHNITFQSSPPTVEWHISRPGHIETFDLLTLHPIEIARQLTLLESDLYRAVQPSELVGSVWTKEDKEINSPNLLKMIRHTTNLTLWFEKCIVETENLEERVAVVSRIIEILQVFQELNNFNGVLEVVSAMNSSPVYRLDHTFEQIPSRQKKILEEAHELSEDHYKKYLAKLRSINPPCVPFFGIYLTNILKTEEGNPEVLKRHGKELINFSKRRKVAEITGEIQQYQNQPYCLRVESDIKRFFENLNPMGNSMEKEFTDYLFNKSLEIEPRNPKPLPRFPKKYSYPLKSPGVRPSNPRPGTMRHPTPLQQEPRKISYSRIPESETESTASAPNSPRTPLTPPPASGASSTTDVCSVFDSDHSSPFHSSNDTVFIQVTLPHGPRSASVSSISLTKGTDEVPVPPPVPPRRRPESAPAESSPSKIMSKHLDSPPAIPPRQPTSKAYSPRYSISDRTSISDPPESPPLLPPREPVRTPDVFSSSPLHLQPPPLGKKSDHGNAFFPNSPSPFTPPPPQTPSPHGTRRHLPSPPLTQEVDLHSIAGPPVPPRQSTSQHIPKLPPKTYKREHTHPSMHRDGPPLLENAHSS
# Sequence of von Hippel-Lindau disease tumor suppressor/Son of sevenless homolog 1 (P40337 whole entry, looked up, stated change not applied): as the sequence (P40337 whole entry, looked up) above
# Sequence of von Hippel-Lindau disease tumor suppressor/Son of sevenless homolog 1 (Q07889 whole entry, looked up, stated change not applied): as the sequence (Q07889 whole entry, looked up) above
compound,measurement,setting,value
COc1cc2nc(C)nc(N[C@H](C)c3cc(N)cc(C(F)(F)F)c3)c2cc1C1CCN(C(=O)CCCCCC(=O)N[C@H](C(=O)N2C[C@H](O)C[C@H]2C(=O)N[C@@H](C)c2ccc(-c3scnc3C)cc2)C(C)(C)C)CC1,Activity,[1],Non-Toxic
same,IC50,MIA PaCa-2,0.0101 µM
same,Emax,[2],100%
same,IC50,LoVo,0.0445 µM
same,inhibition in vivo at 10 mg/kg,SW-620 [3],46.5%
same,inhibition,NCI-H460,inactive
same,Activity,[4],98.2%
same,half-life,[5],9.69 h
same,EC50,[6],0.015 µM
same,Activity,[7],inactive
same,Activity,[8],inactive
same,Activity,[9],inactive
same,Emax,[10],> 95%
same,Emax,[11],> 95%
same,Activity,[12],inactive
same,Activity,[13],Active
same,Emax,[14],> 95%
same,inhibition in vivo at 20 mg/kg,SW-620 [15],65.4%
same,IC50,ASPC1 [16],0.00697 µM
same,Activity,[17],Active
same,Activity,[18],inactive
same,Activity,[19],Active
same,Activity,ASPC1 [20],Active
